SMILES strings stand for the structures. Values joined by “and” are separate entries in the source; they are usually repeats but may differ in a detail not shown here. Equal values may be shown once.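 Values below derive from 48-hour exposures of cells grown in 96-well plates, with endpoints linearly interpolated between the two concentrations bracketing the appropriate inhibition level. GI50: concentration for 50% inhibition of growth. Definition used: TGI = concentration required for complete inhibition of growth.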

Test systems include UO-31 renal; U251 CNS; HS 578T breast; OVCAR-4 ovarian; SF-539 CNS; HCT-15 colon; DU-145 prostate; HOP-62 NSCLC; MALME-3M melanoma; 786-0 renal.
What all share (assay): DTP human tumour cell line panel, 48 h

`COc1cc2c(c(OC)c1OC)C(=O)CC(c1cccc(NC(=O)c3ccc(Br)cc3)c1)O2` (stereo not given): the GI50 in the test with UO-31 renal was 1.49 µM; in the test with U251 CNS, 3.07 µM; with HS 578T breast, 4.1 µM; with OVCAR-4 ovarian, 1.6 µM; in the test on SF-539 CNS, 3.86 µM; in the test with HCT-15 colon it was 2.31 µM. The GI50 with DU-145 prostate was 2.85 µM; with HOP-62 NSCLC, 2.89 µM; in the test on MALME-3M melanoma, 1.47 µM; in the test with 786-0 renal, 2.97 µM. Besides, the total growth inhibition concentration (TGI) in the test with UO-31 renal, in the test with U251 CNS, with HS 578T breast, in the test with OVCAR-4 ovarian, in the test with SF-539 CNS and with HCT-15 colon was > 100 µM throughout. The TGI in the test on DU-145 prostate was > 100 µM; in the test on HOP-62 NSCLC, > 100 µM; with MALME-3M melanoma it was 7.39 µM; in the test with 786-0 renal, > 100 µM.

As to `COc1ccc(C(C#N)NC23CC4CC(CC(C4)C2)C3)cc1OC` (stereo not given), the TGI in the test on UO-31 renal, in the test with U251 CNS, in the test on HS 578T breast, in the test on OVCAR-4 ovarian, in the test on SF-539 CNS and in the test with HCT-15 colon was > 100 µM each time. Also, the TGI in the test on DU-145 prostate, in the test on HOP-62 NSCLC, with MALME-3M melanoma and with 786-0 renal was > 100 µM throughout.

Consider `O=C(CCN1CCOCC1)Nc1ccc(F)cc1F`, for which the concentration for total growth inhibition (TGI) with UO-31 renal, in the test on U251 CNS, with HS 578T breast, in the test on OVCAR-4 ovarian, in the test on SF-539 CNS and with HCT-15 colon was > 100 µM throughout. Also, the TGI with DU-145 prostate, with HOP-62 NSCLC, in the test on MALME-3M melanoma and in the test with 786-0 renal was > 100 µM each time.

As to `CN1CCN(CCCOc2cccc3nc(Nc4ccc(Cl)c(F)c4)ccc23)CC1`, the GI50 was 1.57 µM in the test on UO-31 renal; 1.81 µM in the test with U251 CNS; 2.12 µM in the test with HS 578T breast; 3.13 µM in the test with OVCAR-4 ovarian; 1.53 µM in the test on SF-539 CNS; 1.4 µM with HCT-15 colon. Besides, the GI50 in the test with DU-145 prostate is 1.75 µM; in the test on HOP-62 NSCLC, 1.45 µM; in the test with MALME-3M melanoma, 1.92 µM; in the test with 786-0 renal, 1.67 µM. Besides, the TGI in the test on UO-31 renal was determined as 3.32 µM; in the test on U251 CNS, 3.28 µM; with HS 578T breast, 5.77 µM; in the test on OVCAR-4 ovarian, 12.4 µM; with SF-539 CNS, 3.04 µM; in the test on HCT-15 colon it was 2.79 µM. The TGI with DU-145 prostate amounted to 3.19 µM; in the test with HOP-62 NSCLC it was 3.26 µM; in the test with MALME-3M melanoma, 4.05 µM; with 786-0 renal, 3.22 µM.

`CC(C)(C)[Si](C)(C)OCC1CCC(n2cnc3c(=O)[nH]cnc32)O1` (stereo not given): the total growth inhibition concentration (TGI) in the test on UO-31 renal, in the test with U251 CNS, with HS 578T breast, in the test on OVCAR-4 ovarian, in the test with SF-539 CNS and in the test with HCT-15 colon was > 100 µM throughout. The TGI in the test with DU-145 prostate, with HOP-62 NSCLC, in the test with MALME-3M melanoma and in the test with 786-0 renal was > 100 µM in each case.

As to `Cc1oc2nc[nH]c(=O)c2c1C(=O)/C=C/c1ccc(Cl)cc1`, the GI50 with UO-31 renal was 1.09 µM; with U251 CNS it was 1.97 µM; in the test on HS 578T breast it was 3.66 µM; with OVCAR-4 ovarian, 4.43 µM; in the test on SF-539 CNS, 2.37 µM; in the test on HCT-15 colon, 1.29 µM. Besides, the GI50 was 2.82 µM with DU-145 prostate, 2.83 µM with HOP-62 NSCLC, 2.13 µM with MALME-3M melanoma and 3.02 µM in the test on 786-0 renal. Moreover, the TGI was 11 µM with UO-31 renal; 5.01 µM with U251 CNS; > 100 µM in the test with HS 578T breast; 16.1 µM in the test on OVCAR-4 ovarian; 6.71 µM in the test with SF-539 CNS; 3.51 µM in the test on HCT-15 colon. Further, the TGI in the test with DU-145 prostate was found to be 11.3 µM; with HOP-62 NSCLC, 12.6 µM; with MALME-3M melanoma, 8.29 µM; with 786-0 renal, 10.3 µM.

Take `Cc1cc(N2CCN(C)CC2)nc(NCc2cc(Nc3ccnc4cc(Cl)ccc34)ccc2F)n1`: the GI50 is 1.76 µM in the test with UO-31 renal; 1.87 µM in the test with U251 CNS; 2.82 µM in the test with HS 578T breast; 1.42 µM in the test with OVCAR-4 ovarian; 1.69 µM in the test on SF-539 CNS; 2.21 µM in the test on HCT-15 colon. Besides, the GI50 was 2.52 µM in the test with DU-145 prostate, 1.63 µM with HOP-62 NSCLC, 2.08 µM in the test on MALME-3M melanoma and 1.84 µM in the test with 786-0 renal. Also, the TGI with UO-31 renal was 3.72 µM; with U251 CNS it was 3.73 µM; with HS 578T breast, 7.97 µM; with OVCAR-4 ovarian, 6.13 µM; in the test on SF-539 CNS it was 3.24 µM; in the test with HCT-15 colon it was 8.36 µM. Besides, the TGI with DU-145 prostate was > 100 µM; in the test with HOP-62 NSCLC, 3.83 µM; with MALME-3M melanoma, 3.89 µM; in the test with 786-0 renal, 3.7 µM.

Turning to `O=c1oc2cc(N=Cc3ccccc3Cl)ccc2c2ccccc12`, the TGI in the test on UO-31 renal, with U251 CNS, in the test on HS 578T breast, in the test on OVCAR-4 ovarian, with SF-539 CNS and in the test on HCT-15 colon was > 100 µM each time. Further, the concentration for total growth inhibition (TGI) in the test on DU-145 prostate, with HOP-62 NSCLC, in the test on MALME-3M melanoma and in the test on 786-0 renal was > 100 µM each time.

For `NC(C/[N+]([O-])=N/O)C(=O)O` (stereo not given), the GI50 in the test with UO-31 renal was 5.55 µM and 2.44 µM and 2.13 µM; in the test on U251 CNS it was 0.772 µM and 3.82 µM and 0.713 µM; in the test with OVCAR-4 ovarian, 23.6 µM and > 100 µM and 21.2 µM; with HCT-15 colon, 3.65 µM and 6.69 µM and 1.8 µM; in the test on DU-145 prostate it was 173 µM; in the test on HOP-62 NSCLC, 19.4 µM and 9.42 µM and 4.9 µM. Also, the GI50 with MALME-3M melanoma was 62.1 µM; in the test with 786-0 renal, 1.16 µM and 9.72 µM and 4.15 µM. For the same compound, the TGI is > 100 µM and 235 µM in the test on UO-31 renal; > 500 µM in the test with U251 CNS; > 225 µM in the test with HS 578T breast; > 449 µM in the test on OVCAR-4 ovarian; > 100 µM and 366 µM in the test with SF-539 CNS; > 100 µM and 329 µM in the test with HCT-15 colon. In addition, the TGI in the test on DU-145 prostate is > 500 µM; in the test with HOP-62 NSCLC it was > 100 µM and 92.7 µM; with MALME-3M melanoma, > 487 µM; in the test on 786-0 renal, > 500 µM.

For `COc1ccc(Cl)cc1Nc1nc(C(F)(F)F)ccc1C(=O)N/N=C/c1ccc([N+](=O)[O-])cc1`, the GI50 with UO-31 renal was 1.77 µM; in the test with U251 CNS, 2.06 µM; in the test on HS 578T breast, 2.57 µM; in the test on OVCAR-4 ovarian, 0.979 µM; in the test with SF-539 CNS it was 3.05 µM; in the test with HCT-15 colon it was 1.29 µM. Moreover, the GI50 is 1.27 µM in the test on DU-145 prostate, 2.35 µM in the test on HOP-62 NSCLC, 2.3 µM in the test on MALME-3M melanoma and 1.92 µM in the test on 786-0 renal. Moreover, the TGI in the test with UO-31 renal turned out to be 5.97 µM; in the test with U251 CNS, 6.63 µM; in the test on HS 578T breast it was 62.9 µM; in the test with OVCAR-4 ovarian it was 7.68 µM; in the test on SF-539 CNS, 19.1 µM; in the test on HCT-15 colon, 5.11 µM. The total growth inhibition concentration (TGI) with DU-145 prostate turned out to be 3.21 µM; in the test with HOP-62 NSCLC it was 11.4 µM; in the test on MALME-3M melanoma, 5.59 µM; in the test with 786-0 renal, 9.27 µM.

For the compound `COC(=O)CCC(C)[C@H]1CCC2C3C(C[C@H](OC(C)=O)[C@@]21C)[C@@]1(C)CCC2(C[C@H]1C[C@H]3OC(C)=O)OOC1(CCC(C)CC1)OO2` (stereo not given in full), the GI50 with UO-31 renal is 4.13 µM and 11.2 µM; in the test with HS 578T breast, 2.01 µM and 9.68 µM; with OVCAR-4 ovarian, 3.75 µM and 18.2 µM; in the test with HCT-15 colon, 8.89 µM and 30.9 µM; with DU-145 prostate it was > 100 µM and 27.8 µM; in the test with HOP-62 NSCLC, 2.06 µM and 8.76 µM. Further, the GI50 in the test with 786-0 renal was 9.1 µM and 27.6 µM. The TGI in the test on UO-31 renal was 17.8 µM and 36.4 µM; in the test with U251 CNS it was > 100 µM; with HS 578T breast it was 41.6 µM and 70.7 µM; with OVCAR-4 ovarian, 49.5 µM and > 100 µM; in the test on SF-539 CNS it was > 100 µM; in the test on HCT-15 colon, > 100 µM. Also, the TGI was > 100 µM in the test on DU-145 prostate; 6.4 µM and 28.4 µM in the test on HOP-62 NSCLC; > 100 µM in the test on MALME-3M melanoma; > 100 µM and 95.9 µM with 786-0 renal.

In the case of `COc1cc(NS(C)(=O)=O)ccc1Nc1c2ccccc2nc2c(C)cccc12`, the 50% growth inhibitory concentration (GI50) in the test with UO-31 renal is 0.215 µM and 0.124 µM; in the test with U251 CNS, 0.106 µM and 0.0963 µM; in the test on HS 578T breast, 0.652 µM and 0.406 µM; in the test with OVCAR-4 ovarian, 1.86 µM and 2.6 µM; in the test with SF-539 CNS, 0.102 µM and 0.123 µM; in the test on HCT-15 colon, 0.202 µM and 0.242 µM. The GI50 in the test with DU-145 prostate is 0.145 µM and 0.163 µM; in the test on HOP-62 NSCLC, 0.104 µM and 0.117 µM; in the test on MALME-3M melanoma, 0.312 µM and 0.251 µM; with 786-0 renal, 0.16 µM and 0.17 µM. Further, the TGI is 5.28 µM and 2.81 µM with UO-31 renal; 1.15 µM and 0.868 µM with U251 CNS; 12.8 µM and 6.53 µM in the test with HS 578T breast; 9.74 µM and 16.7 µM in the test with OVCAR-4 ovarian; 0.699 µM and 0.584 µM in the test on SF-539 CNS; 2.61 µM and 3.53 µM in the test with HCT-15 colon. The TGI with DU-145 prostate was 7 µM and 11.5 µM; with HOP-62 NSCLC, 1.37 µM and 1.34 µM; in the test with MALME-3M melanoma it was 3.81 µM and 3.2 µM; with 786-0 renal, 0.923 µM and 1.34 µM.

For `COc1ccc(C[n+]2c3ccccc3n3c4ccc(N)cc4ccc32)c(OC)c1OC`, the GI50 was 40.1 µM with UO-31 renal; 1.7 µM with U251 CNS; 5.81 µM with HS 578T breast; 2.27 µM in the test on OVCAR-4 ovarian; 2.89 µM in the test with SF-539 CNS; 82.1 µM with HCT-15 colon. For the same compound, the GI50 in the test with DU-145 prostate is 6.42 µM; in the test with HOP-62 NSCLC it was 7.4 µM; in the test on MALME-3M melanoma it was 2.08 µM; in the test with 786-0 renal, 34.9 µM. The TGI was > 100 µM with UO-31 renal; 14.5 µM in the test on U251 CNS; 35.2 µM with HS 578T breast; 31.9 µM in the test with OVCAR-4 ovarian; 15.2 µM in the test with SF-539 CNS; > 100 µM in the test on HCT-15 colon. Further, the TGI in the test on DU-145 prostate is 78.1 µM; in the test with HOP-62 NSCLC, 33.1 µM; in the test with MALME-3M melanoma, 7.48 µM; in the test on 786-0 renal, > 100 µM.

Source of the values: PubChem BioAssay (NCI).
